Values quoted from earlier work as cited in the CATMoS acute toxicity set (Mansouri et al. 2021).
“And” between values parts separate entries of the source, which are not always exact repeats. Identical values can stand only once.

Experiment: rat acute oral toxicity
Details: in vivo
From the text: […]The data set underlying the modeling effort for this project was initially compiled by NICEATM and U.S. EPA’s CCTE. Briefly, LD50 data were collected from rat acute oral systemic toxicity tests, including limit tests, ranges/confidence intervals, and discrete LD50 values. The full data set included 21,200 LD50 entries for 15,688 substances. […] Data were reviewed to ensure that LD50 values with obvious errors in the extracted data such as unit conversion errors (e.g., comma and decimal separator misplacements) were either fixed or removed. After this review, 16,209 LD50 values remained. Many of the chemicals represented had multiple LD50 entries, requiring that a single representative value per Chemical Abstracts Service Registry Number (CASRN) identifier be defined to facilitate modeling efforts. Based on ATWG feedback and to define the representative LD50 as a protective value while accounting for the distribution across multiple LD50s, the median of the lowest quartile was computed using only discrete LD50 values (omitting limit test data and range and confidence interval data). A detailed summary of the data compilation is available online on the NICEATM webpage dedicated to the collaborative modeling project (NTP 2020).
[…][…] For categorical designations, limit test and range/confidence interval LD50 data were integrated wherever possible. As such, the number of chemicals with end point values/calls varies across the modeling end points (Table 3) based on whether chemicals had representative LD50 values and/or other data. If a chemical had both, the representative value was used to determine categorical calls rather than limit test data. Some data were useable only for certain end points and categories depending on the thresholds. For example, ranges that spanned multiple hazard categories were considered only for the binary (very toxic/nontoxic) end points and omitted from rendering a determination for hazard category assignment.
[…]The final data set comprising 11,992 chemicals was split into training and evaluation sets […], respectively. This process was performed semirandomly by ordering chemicals based on the five end points (categorical and continuous LD50 values) and partitioning every fourth record into the evaluation set accordingly. This approach was taken to ensure an equivalent distribution of the LD50 values and the different hazard categories between the training and the evaluation sets without supervised sampling of the chemicals based on structures (Figure 1A). The sources of the chemical structures were also kept equivalent between the two sets, with chemical structures obtained from DSSTox, being the highest quality, representing over 75% of each set (Figure 1B).

First: Nc1ccc2c(c1)Cc1cc(N)ccc1-2
Second: CC(SCC(=O)O)c1ccc2c(c1)Cc1ccccc1-2 (stereo not given)
The LD50 of the first is 1.8-fold lower: 1070 mg/kg for the first, 1900 mg/kg for the second.

CCOP(=O)(OCC)SCn1nc(C)ccc1=O and CCOP(=S)(OCC)SCCl are within 1.5-fold of each other in LD50: 6.5 mg/kg for the first, 7 mg/kg for the second.

First: C[C@@H]1O[C@@H](O[C@@H]2C=C3CC[C@@H]4[C@H](CC[C@]5(C)[C@@H](c6ccc(=O)oc6)CC[C@]45O)[C@@]3(C)CC2)[C@H](O)[C@H](O)[C@H]1O
Second: CC1(C)S[C@@H]2[C@H](NC(=O)C3(N)CCCCC3)C(=O)N2[C@H]1C(=O)O
The LD50 of the first is 89-fold lower: 56 mg/kg for the first, 5010 mg/kg for the second.

Compared with c1ccc([I+]c2ccccc2)cc1, OC(CNc1ccccn1)c1ccccc1 (stereo not given) is 13-fold higher in LD50: 60 mg/kg for the first, 756 mg/kg for the second.

First: CN(C)C(=O)Nc1ccc(Cl)cc1
Second: CN(C)C(=O)Oc1ccccc1C1SCCS1
The LD50 of the first is 66-fold higher: 1050 mg/kg for the first, 16 mg/kg for the second.

First: CCCCN(CCCC)CCCN
Second: CCCCC
The LD50 of the first is 2-fold higher: 820 mg/kg for the first, 400 mg/kg for the second.

CCCCOCCOCCOCCCC and CCCCOCCOCC are within 1.5-fold of each other in LD50: 3900 mg/kg for the first, 2830 mg/kg for the second.

CCNc1nc(NC(C)C)nc(OC)n1 and CCNc1nc(NC(C)(C)C)nc(SC)n1 are within 1.5-fold of each other in LD50: 1460 mg/kg for the first, 2040 mg/kg for the second.

Going from CCCCCCCCOC(C)=O to CCCCOC(=O)C1CC1OCCCC (stereo not given), the LD50 falls from 3000 mg/kg to 24 mg/kg (120-fold).

Compared with C1OCC(COCC2COCO2)O1 (stereo not given), CNC(=O)ON=C1C2CCC(C2)C1(C)[N+](=O)[O-] (stereo not given) is 210-fold lower in LD50: 5150 mg/kg for the first, 24 mg/kg for the second.

Compared with CCc1cccc2c3c([nH]c12)C(CC)(CC(=O)O)OCC3 (stereo not given), COC(=O)c1cccc(C)c1O is 41-fold higher in LD50: 94 mg/kg for the first, 3840 mg/kg for the second.

Compared with NCC(O)c1cccc(O)c1 (stereo not given), NCCOC(=O)c1ccccc1 is 24-fold higher in LD50: 390 mg/kg for the first, 9270 mg/kg for the second.

COCCOc1cnc(NS(=O)(=O)c2ccccc2)nc1 and COCCOCc1ccccc1 are within 1.5-fold of each other in LD50: 3100 mg/kg for the first, 2290 mg/kg for the second.

ClCC(Cl)=C(Cl)Cl and ClCCOCCOCCCl are within 1.5-fold of each other in LD50: 350 mg/kg for the first, 250 mg/kg for the second.

Compared with O=C(CS(=O)Cc1ccco1)NC/C=C\COc1cc(CN2CCCCC2)ccn1 (stereo not given), c1cc2c(c(NC3=NCCN3)c1)CCC2 is 2.6-fold lower in LD50: 1250 mg/kg for the first, 481 mg/kg for the second.

Compared with Nc1ccc(F)c(F)c1F, O=C(O)c1cc(-c2ccc(F)cc2F)ccc1O is 1.8-fold lower in LD50: 699 mg/kg for the first, 392 mg/kg for the second.

First: CCOc1ccc2c(c1)C(C)=CC(C)(C)N2
Second: CCOC(CC)(C1=NCC(C)(C)CN1)c1ccc(Cl)cc1 (stereo not given)
The LD50 of the first is 62-fold higher: 3580 mg/kg for the first, 58 mg/kg for the second.

First: CC1COn2c1nc1ccccc1c2=O (stereo not given)
Second: CC1(C)CN(c2ccccc2)NC1=O
The LD50 of the first is 26-fold higher: 765 mg/kg for the first, 30 mg/kg for the second.

Going from CC(C)=CCC(=O)c1ccoc1 to CC(C)C(NC(=O)COc1ccc(Cl)cc1Cl)C(=O)O (stereo not given), the LD50 rises from 25 mg/kg to 750 mg/kg (30-fold).

Compared with CC(C)NCC1CCc2cc(CO)c([N+](=O)[O-])cc2N1 (stereo not given), O=C1CCC(C(=O)NC2CC2c2ccccc2)N1 (stereo not given) is 3.2-fold higher in LD50: 30 mg/kg for the first, 96 mg/kg for the second.

Nc1nc(N)c2nc(-c3ccccc3)c(N)nc2n1 and C/C(=N/Nc1nc(C)cc(C)n1)c1ccccc1C are within 1.5-fold of each other in LD50: 400 mg/kg for the first, 525 mg/kg for the second.

Going from O=CC1CCC=CO1 (stereo not given) to O=C(O)C1CSCN1 (stereo not given), the LD50 falls from 4920 mg/kg to 875 mg/kg (5.6-fold).

First: CSC(C)=NOC(=O)N(C)SN(C)C(=O)Oc1ccc(C(C)(C)c2ccc(OC(=O)N(C)SN(C)C(=O)ON=C(C)SC)cc2)cc1
Second: O=NN(c1cccc(C(F)(F)F)c1)c1ccccc1C(=O)O
The LD50 of the first is 1.8-fold lower: 508 mg/kg for the first, 900 mg/kg for the second.

First: O=c1ncc2[nH]cnc2[nH]1
Second: Cc1ncc(CSSCc2cnc(C)c(O)c2CCl)c(CCl)c1O
The LD50 of the first is 4.1-fold lower: 1040 mg/kg for the first, 4300 mg/kg for the second.

Compared with CC(C)C1=Nc2ccccc2C1=C(N)c1cccnc1, OC(Cn1cncn1)(c1ccc(F)cc1)c1ccccc1F (stereo not given) is 3.3-fold higher in LD50: 350 mg/kg for the first, 1140 mg/kg for the second.

Going from Clc1ccc([Si]23OCCN(CCO2)CCO3)cc1 to C#CCN(C)CCCOc1ccc(Cl)cc1Cl, the LD50 falls from 520 mg/kg to 210 mg/kg (2.5-fold).

For CN(C)CN(C)C, the LD50 is given as 1770 mg/kg.

In the case of CCCCC(CC)COC(=O)C=CC(=O)OCC(CC)CCCC (stereo not given), the LD50 is given as 29200 mg/kg and 14000 mg/kg.
For C[N+](C)(C)C, the LD50 is given as 77 mg/kg and 50 mg/kg.
